Reference: patent US20240252650A1, “LIPID COMPOUNDS AND LIPID NANOPARTICLE COMPOSITIONS” (SUZHOU ABOGEN BIOSCIENCES CO., LTD., priority 2021, published 2024)

Experiments:
Format in all cases: physicochemical
[1] = Lipid nanoparticle size and polydispersity by dynamic light scattering (Malvern Zetasizer Nano ZS); conditions: LNP encapsulating hEPO mRNA; table of Example 16
Procedure: (§1) Briefly, a cationic lipid provided herein, DSPC, cholesterol, and PEG-lipid were solubilized in ethanol at a molar ratio of 50:10:38.5:1.5, and mRNA were diluted in 10 to 50 mM citrate buffer, pH=4. The LNPs were prepared at a total lipid to mRNA weight ratio of approximately 10:1 to 30:1 by mixing the ethanolic lipid solution with the aqueous mRNA solution at a volume ratio of 1:3 using a microfluidic apparatus, total flow rate ranging from 9-30 mL/min. Ethanol were thereby removed and replaced by DPBS using dialysis. Finally, the lipid nanoparticles were filtered through a 0.2 μm sterile filter.
(§2) Lipid nanoparticle size were determined by dynamic light scattering using a Malvern Zetasizer Nano ZS (Malvern UK) using a 173° backscatter detection mode. The encapsulation efficiency of lipid nanoparticles were determined using a Quant-it Ribogreen RNA quantification assay kit (Thermo Fisher Scientific, UK) according to the manufacturer's instructions.

[2] = Encapsulation efficiency of lipid nanoparticles (Quant-it Ribogreen RNA quantification assay); conditions: LNP encapsulating hEPO mRNA; table of Example 16
Procedure: as §1, §2

[3] = Apparent pKa of LNP formulations by TNS fluorescence assay; conditions: LNP cationic lipid/DSPC/cholesterol/DMG-PEG 50/10/38.5/1.5 mol %, table of Example 16
Procedure: As reported in literature, the apparent pKa of LNP formulations correlates with the delivery efficiency of LNPs for nucleic acids in vivo. The apparent pKa of each formulation was determined using an assay based on fluorescence of 2-(p-toluidino)-6-napthalene sulfonic acid (TNS). LNP formulations comprising of cationic lipid/DSPC/cholesterol/DMG-PEG (50/10/38.5/1.5 mol %) in PBS were prepared as described above. TNS was prepared as a 300 uM stock solution in distilled water. LNP formulations were diluted to 0.1 mg/ml total lipid in 3 mL of buffered solutions containing 50 mM sodium citrate, 50 mM sodium phosphate, 50 mM sodium borate, and 30 mM sodium chloride where the pH ranged from 3 to 9. An aliquot of the TNS solution was added to give a final concentration of 0.1 mg/ml and following vortex mixing fluorescence intensity was measured at room temperature in a Molecular Devices Spectramax iD3 spectrometer using excitation and mission wavelengths of 325 nm and 435 nm. A sigmoidal best fit analysis was applied to the fluorescence data and the pKa value was measured as the pH giving rise to half-maximal fluorescent intensity.

Row | SMILES | polydispersity [1] | size (nm) [1] | Encapsulation Efficiency [2] | Apparant Pka [3]
1 | CCCCC/C=C\C/C=C\CCCCCCCC(=O)OCC(COC(=O)CCCC(COC(=O)CCCCCCC)COC(=O)CCCCCCC)COC(=O)CCN(CCO)C1CCC1 (centres unmarked) [Compound 1] | 0.047 | 77.60 nm | 89.48% | 5.56
2 | CCCCC/C=C\C/C=C\CCCCCCCC(=O)OCC(COC(=O)CCOC(COC(=O)CCCCCCC)COC(=O)CCCCCCC)COC(=O)OCCCN(CC)CC (centres unmarked) [Compound 3] | 0.121 | 88.27 nm | 89.46% | 6.649
3 | CCCCC/C=C\C/C=C\CCCCCCCC(=O)OCC(COC(=O)CCCCN(CCO)C1CCC1)COC(=O)CCCC(COC(=O)CCCCCCC)COC(=O)CCCCCCC (centres unmarked) [Compound 4] | 0.090 | 93.73 nm | 91.42% | 6.881
4 | CCCCC/C=C\C/C=C\CCCCCCCC(=O)OCC(COC(=O)CCCC(COC(=O)CCCCCCC)COC(=O)CCCCCCC)COC(=O)OCCN(CCO)C1CCCCC1 (centres unmarked) [Compound 8] | 0.049 | 63.20 nm | 85.90% | –
5 | CCCCC/C=C\C/C=C\CCCCCCCC(=O)OCC(COC(=O)CCCC(COC(=O)CCCCCCC)COC(=O)CCCCCCC)COC(=O)OCCN(CCO)C1CCC1 (centres unmarked) [Compound 12] | 0.096 | 53.68 nm | 81.79% | –
6 | CCCCCCCCCCCC(=O)OCC(COC(=O)CCCC(COC(=O)CCCCCCC)COC(=O)CCCCCCC)COC(=O)CCN(CCO)C1CCC1 (centres unmarked) [Compound 15] | 0.043 | 90.47 nm | 93.04% | –
7 | CCCCCCCCCCCCC(=O)OCC(COC(=O)CCCCN(CCO)C1CCC1)COC(=O)CCCC(COC(=O)CCCCCCC)COC(=O)CCCCCCC (centres unmarked) [Compound 18] | 0.031 | 84.24 nm | 78.25% | 6.915
8 | CCCCC/C=C\C/C=C\CCCCCCCC(=O)OCC(COC(=O)CCCC(COC(=O)CCCCCCC)COC(=O)CCCCCCC)COC(=O)OCCN(CCO)C1CCCC1 (centres unmarked) [Compound 33] | 0.053 | 71.21 nm | 83.76% | –
9 | CCCCC/C=C\C/C=C\CCCCCCCC(=O)OCC(COC(=O)CCCC(COC(=O)CCCCCCC)COC(=O)CCCCCCC)COC(=O)OCCCN(CCO)C1CCC1 (centres unmarked) [Compound 34] | 0.049 | 82.63 nm | 89.00% | 6.307
10 | CCCCCCCCCCCCCCCC(=O)OCC(COC(=O)CCCCN(CCO)C1CCC1)COC(=O)CCCC(COC(=O)CCCCCCC)COC(=O)CCCCCCC (centres unmarked) [Compound 41] | – | – | – | 6.895
11 | CCCCC/C=C\C/C=C\CCCCCCCC(=O)OCC(COC(=O)CCCCCCN(CCO)C1CCC1)COC(=O)CCCC(COC(=O)CCCCCCC)COC(=O)CCCCCCC (centres unmarked) [Compound 42] | 0.077 | 96.94 nm | 92.04% | 6.879
12 | CCCCC/C=C\C/C=C\CCCCCCCC(=O)OCC(COC(=O)CCCCCCCN(CCO)C1CCC1)COC(=O)CCCC(COC(=O)CCCCCCC)COC(=O)CCCCCCC (centres unmarked) [Compound 43] | 0.04 | 95.19 nm | 93.46% | 6.766
13 | CCCCCCCC(=O)OCC(CCCC(=O)OCC(COC(=O)CCCCCCC)COC(=O)CCCCCCCN(CCO)C1CCC1)COC(=O)CCCCCCC (centres unmarked) [Compound 44] | – | – | – | 6.812
14 | CCCCCCCCC(=O)OCC(COC(=O)CCCCCN(CCO)C1CCC1)COC(=O)CCCC(COC(=O)CCCCCCC)COC(=O)CCCCCCC (centres unmarked) [Compound 45] | 0.067 | 144.2 nm | 90.08% | 6.965
15 | CCCCCCCCC(=O)OCC(COC(=O)CCCCCCCN(CCO)C1CCC1)COC(=O)CCCC(COC(=O)CCCCCCC)COC(=O)CCCCCCC (centres unmarked) [Compound 46] | 0.069 | 158.9 nm | 89.87% | 7.088
16 | CCCCCCCCCC(=O)OCC(COC(=O)CCCCN(CCO)C1CCC1)COC(=O)CCCC(COC(=O)CCCCCCC)COC(=O)CCCCCCC (centres unmarked) [Compound 47] | – | – | – | 7.217
17 | CCCCCCCCCCC(=O)OCC(COC(=O)CCCCN(CCO)C1CCC1)COC(=O)CCCC(COC(=O)CCCCCCC)COC(=O)CCCCCCC (centres unmarked) [Compound 48] | 0.087 | 108.4 nm | 93.21% | 7.229
18 | CCCCCCCCCCC(=O)OCC(COC(=O)CCCCCN(CCO)C1CCC1)COC(=O)CCCC(COC(=O)CCCCCCC)COC(=O)CCCCCCC (centres unmarked) [Compound 49] | 0.086 | 100.8 nm | 89.09% | 7.287
19 | CCCCCCCCCCC(=O)OCC(COC(=O)CCCCCCN(CCO)C1CCC1)COC(=O)CCCC(COC(=O)CCCCCCC)COC(=O)CCCCCCC (centres unmarked) [Compound 50] | 0.158 | 89.62 nm | 91.68% | 7.175
20 | CCCCCCCCCCCC(=O)OCC(COC(=O)CCCCCN(CCO)C1CCC1)COC(=O)CCCC(COC(=O)CCCCCCC)COC(=O)CCCCCCC (centres unmarked) [Compound 51] | – | – | – | 7.288
21 | CCCCCCCCCCCC(=O)OCC(COC(=O)CCCCCCCN(CCO)C1CCC1)COC(=O)CCCC(COC(=O)CCCCCCC)COC(=O)CCCCCCC (centres unmarked) [Compound 52] | – | – | – | 7.041
22 | CCCCCCCCC(=O)OCC(COC(=O)CCCCCCN(CCO)C1CCC1)COC(=O)CCCC(COC(=O)CCCCCCC)COC(=O)CCCCCCC (centres unmarked) [Compound 57] | 0.079 | 117 nm | 84.36% | 7.016

Continued, values first:

Row | polydispersity [1] | size (nm) [1] | Encapsulation Efficiency [2] | Apparant Pka [3] | SMILES
23 | 0.129 | 104.3 nm | 77.87% | 6.97 | CCCCCCCCCC(=O)OCC(COC(=O)CCCCCN(CCO)C1CCC1)COC(=O)CCCC(COC(=O)CCCCCCC)COC(=O)CCCCCCC (centres unmarked) [Compound 58]
24 | – | – | – | 7.019 | CCCCCCCCCCCCCCCCCC(=O)OCC(COC(=O)CCCCCN(CCO)C1CCC1)COC(=O)CCCC(COC(=O)CCCCC)COC(=O)CCCCCCC (centres unmarked) [Compound 61]
25 | – | – | – | 6.999 | CCCCCCCCCCCCC(=O)OCC(COC(=O)CCCCCN(CCO)C1CCC1)COC(=O)CCCC(COC(=O)CCCCCCC)COC(=O)CCCCCCC (centres unmarked) [Compound 63]
26 | 0.196 | 105.4 nm | 87.35% | 6.837 | CCCCCCCCCCCCC(=O)OCC(COC(=O)CCCCCCN(CCO)C1CCC1)COC(=O)CCCC(COC(=O)CCCCCCC)COC(=O)CCCCCCC (centres unmarked) [Compound 64]
27 | – | – | – | 6.111 | CCCCCCCCCCCCCCCCCC(=O)OCC(COC(=O)CCCC(COC(=O)CCCCCCC)COC(=O)CCCCCCC)COC(=O)OCCCN(CCO)C1CCCCC1 (centres unmarked) [Compound 65]
28 | – | – | – | 6.349 | CCCCCCCCC(=O)OCC(COC(=O)CCCC(COC(=O)CCCCCCC)COC(=O)CCCCCCC)COC(=O)OCCCN(CCO)C1CCC1 (centres unmarked) [Compound 67]
29 | – | – | – | 7.076 | CCCCCCCCCCCCCCCCCC(=O)OCC(COC(=O)CCCCN(CCO)C1CCC1)COC(=O)CCCC(COC(=O)CCCCCCC)COC(=O)CCCCCCC (centres unmarked) [Compound 72]
30 | – | – | – | 6.547 | CCCCCCCCCCCCCCCCCC(=O)OCC(COC(=O)CCCCN(CCO)C1CCCCCC1)COC(=O)CCCC(COC(=O)CCCCCCC)COC(=O)CCCCCCC (centres unmarked) [Compound 75]
31 | – | – | – | 6.887 | CCCCCCCCCC(=O)OCC(COC(=O)CCCCCCN(CCO)C1CCC1)COC(=O)CCCC(COC(=O)CCCCCCC)COC(=O)CCCCCCC (centres unmarked) [Compound 79]
32 | – | – | – | 6.858 | CCCCCCCCCC(=O)OCC(COC(=O)CCCCCCCN(CCO)C1CCC1)COC(=O)CCCC(COC(=O)CCCCCCC)COC(=O)CCCCCCC (centres unmarked) [Compound 80]
33 | – | – | – | 7.232 | CCCCCCCCCCCCCCCCCC(=O)OCC(COC(=O)CCCCN(CCC)CCO)COC(=O)CCCC(COC(=O)CCCCCCC)COC(=O)CCCCCCC (centres unmarked) [Compound 83]
34 | – | – | – | 5.905 | C=CCN(CCO)CCCOC(=O)OCC(COC(=O)CCCCCCC/C=C\C/C=C\CCCCC)COC(=O)CCCC(COC(=O)CCCCCCC)COC(=O)CCCCCCC (centres unmarked) [Compound 88]
35 | – | – | – | 6.192 | C/C=C/CN(CCO)CCCOC(=O)OCC(COC(=O)CCCCCCC/C=C\C/C=C\CCCCC)COC(=O)CCCC(COC(=O)CCCCCCC)COC(=O)CCCCCCC (centres unmarked) [Compound 94]
36 | – | – | – | 6.006 | CCCCCCCCCCCCCCCCCC(=O)OCC(COC(=O)CCCCN(CCO)CC(C)C)COC(=O)CCCC(COC(=O)CCCCCCC)COC(=O)CCCCCCC (centres unmarked) [Compound 97]
